Where two headings read alike, the source gives them in different places.
How the values were obtained:
[1] = system: Staphylococcus aureus (10788 strain); test: Antimicrobial efficacy of actives against S. aureus in water, 15 seconds contact, NMBS; assay type: cell-based; conditions: for NMBS: 15 s
Method: Selected materials were also tested against a representative Gram positive Staphylococcus aureus.
The following assay describes the testing of 8 materials using 6 dilutions across half of a 96-well micro titre plate (MTP). Using this approach it is possible to assay 16 actives (without replicates) with one full dilution plate, replicating this set up in two halves of the plate columns, 1-6 and 7-12.
Bacterial stock (30 μl) was then added to the prepared 270 μl of the solution of actives in the Screening Plate and mixed, using a multichannel pipette with 8 tips to aspirate and dispense the same volume of bacterial stock in parallel to 8 wells in rows A-H. After a contact time of 15 seconds, the mixtures were quenched by transferring 30 μl volumes of the mixtures into the 270 μl D/E neutralising solution in the prepared dilution plate, using aspiration to mix. After exactly 5 minutes in the D/E neutralising solution, […] were transferred from column 1 to column 2 of the Dilution MTP and mixed, before transferring further 30 μl volumes from column 2 into column 3. This process was repeated serially diluting the bacteria across the plate to column 6.
30 μl volumes from each well in the Dilution MTP were transferred onto pre-labelled segment of Tryptone Soya Agar (TSA) plates starting from the lowest bacterial concentration (highest dilution, column 6) to the highest bacterial concentration (column 1). The TSA plates were allowed to stand for ca. 2 hours so that the 30 μl inocula spots could dry and the plates were then inverted and incubated overnight at 37° C. before enumerating the bacterial colonies at the labelled dilutions to determine the effects of the actives on bacterial growth.
Mean bacterial survival numbers NMBS (expressed in Log CFU/ml) are obtained by first determining the segment of the TSA plate where the number of bacterial colonies is countable. From the colony number in this segment. NMBS is calculated by the formula: NMBS=log {Ncol·10^DF·100/3} Here, Ncol is the colony count, and DF is the dilution factor taken from the MTP-well corresponding to the TSA plate segment (i.e. DF may range from 1 for the quench, to 6 for the highest dilution). The factor 100/3 is a conversion factor from the volume of the inocula spot to one milliliter.
Every assay test was performed in triplicate.
Thus, a value of NMBS as of about 7 corresponds to a count of about […] from the fifth dilution well, i.e. with DF=5. Such a count of about 7 is generally observed when bacteria are exposed to non-biocidal materials. In case no surviving colonies are observed in any segment of the TSA plate, this is interpreted as complete kill and a value of NMBS=0 is reported.
S. aureus Bacterial stock was prepared as shown below and the antibacterial efficacy of the active was carried out as explained earlier for E. Coli.
An overnight culture of Staphylococcus aureus (10788 strain) was inoculated onto a Tripticase Soy Agar (TSA) plate and grown for ca. 18 hrs at 37° C. The culture of S. aureus was washed from the plate using sterile saline (0.85% NaCl) solution and a sterile spreader and suspended in 50 ml saline. This suspension was separated into equal volumes and centrifuged at 4000 rpm for 15 minutes. Following centrifugation the pellet was re-suspended in saline to give a final concentration of 0.35 OD620 equivalent to about 10^8 cells per milliliter for this particular organism. Here. OD620 indicates the absorbance of a sample in a cuvette of 1.0 cm path length at a wavelength of 620 nm. This bacterial stock was used for assaying against antimicrobial actives (in triplicate).

[2] = system: Escherichia coli (E. coli—ATCC #10536); test: Automated assessment of efficacy in model surfactant base (2.85% sodium cocoyl glycinate + 1.85% sodium lauroamphoacetate, pH 10), 15 seconds exposure, delta OD450/OD590 in D/E quench; assay type: cell-based; conditions: for MBC: in 2.85% sodium cocoyl glycinate + 1.85% sodium lauroamphoacetate solution at pH 10, E. coli
Method: Solutions were prepared such that the concentrations of the surfactant components and test actives were 1.1× the final desired concentration in order to allow for dilution with the bacterial inoculum in the test. The solutions were manually adjusted to pH 10.0 by dropwise addition of sodium hydroxide solution, as measured with a pH meter at ambient temperature.
Tests were conducted using standard microtiter plate assays using an automated liquid handling system. 270 μl of the surfactant test solution was pipetted into each well of the microtitre plate and 30 μl of the bacterial suspension was then added. After exactly 15 seconds of bacterial exposure, a 30 μl volume of bacterial cells was withdrawn and transferred to 270 μl of D/E quench solution. After 5 minutes in the D/E quench, the optical density (OD) was measured for each plate in turn at two specific wavelengths (450 nm and 590 nm). These provide a dual check of antimicrobial activity, as the OD450 reading is specific for the yellow colour of D/E quench when bacterial growth is observed, whereas OD590 is specific for the initial purple colour of the D/E quench which is retained if no bacterial growth is observed. After the time zero OD measurements, plates were then incubated at 37° C. overnight (16 hours) before repeating the OD measurements. Delta OD values were calculated by subtracting […]. Bacterial growth is observed as an increase in OD450 and a decrease in ΔOD590. To identify antibacterially efficacious systems (those preventing appreciable bacterial growth after incubation), the following threshold changes in OD readings have been adopted: if (1). OD450 increases by less than 0.2 absorbance unit on incubation and (2). OD590 decreases by less than 0.35 unit on incubation. Conversely, where OD450 increases by more than 0.2 AU and OD590 decreases by more than 0.35 unit after incubation, corresponding to a colour shift from purple to yellow, the test system allows bacterial growth and is not deemed efficacious. Four replicate measurements in the same plate have been made for each test system. The number of replicate wells showing either bacterial growth or no growth is also readily assessed by eye by following the colour change.
Dose responses for individual components and binary mixtures of actives at a fixed concentration ratio were generated by sequential dilution of liquors with further surfactant solution to obtain a series of endpoints.
In some selected cases, the combinations were also tested at the weight ratio 1:1.
The method used was the same as in the above Table.

E. coli ATCC #10536 = test: Synergy test: high resolution MBC microtiter plate assay in phosphate buffer containing 35% dipropylene glycol, 15 seconds contact; assay type: cell-based, Escherichia coli; conditions: E. coli 10536, complete kill in 15 seconds, phosphate buffer with 35% DPG
Text: One measure of synergy is the industrially accepted method described by Kull, F. C.; Eisman. P. C.; Sylwestrowicz, H. D. and Mayer, R. L., in Applied Microbiology 9:538-541 (1961), using the ratio determined by the formula: Qa/QA÷Qb/QB=Synergy Index (“SI”) wherein: QA=concentration of compound A (first component) in percent, acting alone, which produced an end point (MBC of Compound A). […]=concentration of compound A in percent, in the mixture, which produced an end point. QB=concentration of compound B (second component) in percent, acting alone, which produced an end point (MBC of Compound B). Qb=concentration of compound B in percent, in the mixture, which produced an end point.
When the sum of Qa/QA and Qb/QB is greater than one, antagonism is indicated. […] The lower the SI, the greater is the synergy shown by that particular mixture. The minimum biocidal concentration (MBC) of a microbicide is the lowest concentration tested under a specific set of conditions that provides complete kill of the tested microorganisms.
Synergy tests were conducted using standard microtiter plate assays with phosphate buffer containing 35% dipropylene glycol (DPG). In this method, a wide range of combinations of chemicals was tested by conducting high resolution MBC assays of Component (A) in the presence of various concentrations of Component (B). High resolution MBCs were determined by adding varying amounts of microbicide to one column of a microtiter plate and doing subsequent ten-fold dilutions using an automated liquid handling system to obtain a series of closely spaced endpoints. The MBC plate was inoculated one column at a time with the test microorganism. An aliquot of the inoculated well was transferred at 15 seconds to a plate containing a neutralizing agent (D/E Neutralizing Broth), mixed and held for 5 minutes before being transferred to a growth plate containing trypticase soy broth (TSB). The TSB plate was incubated at 37° C. and read for the presence/absence of growth at 24 hours. The lowest level tested that provided complete kill (as evidenced by no growth in the microtitre plate) of the test organisms in 15 seconds is the minimum biocidal concentration (MBC).
The synergy of the combinations of the present invention was determined against a bacterium, Esherichia coli (E. coli—ATCC #10536), at a concentration of approximately 1×10^8 bacteria per mL. This microorganism is representative of natural contaminants in many consumer and industrial applications.

[3] = system: Escherichia coli (10536 strain); test: Antimicrobial efficacy in water, 15 seconds contact, mean bacterial survival NMBS on TSA plates; assay type: cell-based; conditions: 0.06% w/v alone, E. coli, 15 s
Method: Antimicrobial efficacy is tested against a representative pathogenic bacterial organism, Gram negative Escherichia coli. Concentrations of actives are expressed in terms of the percentage weight/volume (% w/v) throughout the following Examples. […] Here, OD620 indicates the absorbance of a sample in a cuvette of 1.0 cm path length at a wavelength of 620 nm. This bacterial stock was used for assaying against antimicrobial actives (in triplicate). The following assay describes the testing of 8 materials using 6 dilutions across half of a 96-well micro titre plate (MTP). […] 1M solutions of the test actives were prepared in dimethylsulphoxide (DMSO). […] This MTP was labelled as the “Screening plate”. […] The composition of the neutralising solution was as follows: pancreatic digest of casein, 5.0 g/L; […] 270 μl of tryptone diluent solution was added to all the remaining wells of the Dilution MTP (columns 2-6). […] After a contact time of 15 seconds, the mixtures were quenched by transferring 30 μl volumes of the mixtures into the 270 μl D/E neutralising solution in the prepared dilution plate, using aspiration to mix. […] Mean bacterial survival numbers NMBS (expressed in Log CFU/ml) are obtained by first determining the segment of the TSA plate where the number of bacterial colonies is countable. From the colony number in this segment. NMBS is calculated by the formula: […] DF may range from 1 for the quench, to 6 for the highest dilution). The factor 100/3 is a conversion factor from the volume of the inocula spot to one milliliter. Every assay test was performed in triplicate. The reported mean bacterial survival results are the average of such a triplet, the error is the corresponding standard deviation. […] Such a count of about 7 is generally observed when bacteria are exposed to non-biocidal materials.

In the case of `C=C(C)C1CC=C(C)C(O)C1` (stereo not drawn) [2-methyl-5-(prop-1-en-2-yl)cyclohex-2-enol], the NMBS ([1]; 0.5% w/v alone, S. aureus) is reported as 7.27 log CFU/ml, the MBC ([2]; Escherichia coli, ATCC10536, 15 s, read-out: MBC) is reported as 4000 µg/mL and the “No. of replicates showing growth (out of 4)” value ([2]; single active at 0.2% w/v) is reported as 4. The “Δ OD 590 nm = OD590 (time = 16 hours) − OD590 (time zero), Mean” value (shortened to “Δ OD 590 nm = OD590”) ([2]; single active at 0.2% w/v) was 0.61, the “ΔOD 450 nm = OD450 (time = 16 hours) − OD450 (time zero), Mean” value (from here on “ΔOD 450 nm = OD450”) ([2]; single active at 0.2% w/v) was −0.51 and the “No. of replicates showing growth (out of 4)” value ([2]; single active at 0.3% w/v) was 4. The “Δ OD 590 nm = OD590” value ([2]; single active at 0.3% w/v) was 0.59, the “ΔOD 450 nm = OD450” value ([2]; single active at 0.3% w/v) was −0.50 and the “No. of replicates showing growth (out of 4)” value ([2]; single active at 0.4% w/v) was 4. The “Δ OD 590 nm = OD590” value ([2]; single active at 0.4% w/v) was 0.47, the “ΔOD 450 nm = OD450” value ([2]; single active at 0.4% w/v) was −0.35 and the “No. of replicates showing growth (out of 4)” value ([2]; single active at […] w/v) was 4. The “Δ OD 590 nm = OD590” value ([2]; single active at […] w/v) was 0.63, the “ΔOD 450 nm = OD450” value ([2]; single active at […] w/v) was −0.50 and the “MBC of the component acting alone (QA or QB; Qa or Qb with the other component at 0)” value (E. coli ATCC #10536) was 0.7 weight %.
For `CCCc1ccccc1O` [2-n-propylphenol], the NMBS ([1]; 0.03% w/v alone, S. aureus) was 7.12 log CFU/ml, the “bacterial kill (in words)” value ([1]; […] 2-propylphenol alone, S. aureus) was “Complete bacterial kill” and the MBC ([1]; component alone, against S. aureus, in water) was 0.25 % w/v. The MBC [2] was 0.175 % w/v, the “No. of replicates showing growth (out of 4)” value ([2]; single active at 0.05% w/v) was 4 and the “Δ OD 590 nm = OD590” value ([2]; single active at 0.05% w/v) was 0.46. For the same compound, the “No. of replicates showing growth (out of 4)” value ([2]; single active at […] w/v) was 4, the “Δ OD 590 nm = OD590” value ([2]; single active at […] w/v) was 0.66 and the NMBS [3] was 7.68 log CFU/ml.

Source: patent US9820483B2, “Microbial composition” (Rohm and Haas Company, priority 2011, dated 2017)
